Reference: ChEMBL document CHEMBL1130479, “7-O-acylpaclitaxel analogues: potential probes to map the paclitaxel binding site” (1997)

Key:
B16 = experiment: The cytotoxic activity was measured against B16 melanoma cells, activity expressed as ED50 of compound/ ED50 of paclitaxel; assay type: functional, Mus musculus
[1] = The activity to inhibit microtubule assembly, activity expressed as ED50 of compound/ ED50 of paclitaxel; assay type: functional

Structure (SMILES): CC(=O)O[C@H]1C(=O)[C@]2(C)[C@@H](OC(=O)c3cccc(N)c3)C[C@H]3OC[C@@]3(OC(C)=O)[C@H]2[C@H](OC(=O)c2ccccc2)[C@]2(O)C[C@H](OC(=O)[C@H](O)[C@@H](NC(=O)c3ccccc3)c3ccccc3)C(C)=C1C2(C)C
- Cytotoxicity (B16): 7.1
- Activity [1]: 1.5

Structure (SMILES): CC(=O)O[C@H]1C(=O)[C@]2(C)[C@@H](OC(=O)c3cc(N)cc([N+](=O)[O-])c3)C[C@H]3OC[C@@]3(OC(C)=O)[C@H]2[C@H](OC(=O)c2ccccc2)[C@]2(O)C[C@H](OC(=O)[C@H](O)[C@@H](NC(=O)c3ccccc3)c3ccccc3)C(C)=C1C2(C)C
- Cytotoxicity (B16): 16
- Activity [1]: 4.4

Structure (SMILES): CC(=O)O[C@H]1C(=O)[C@]2(C)[C@@H](OC(=O)c3cccc(N(C)C)c3)C[C@H]3OC[C@@]3(OC(C)=O)[C@H]2[C@H](OC(=O)c2ccccc2)[C@]2(O)C[C@H](OC(=O)[C@H](O)[C@@H](NC(=O)c3ccccc3)c3ccccc3)C(C)=C1C2(C)C
- Activity [1]: 22

Structure (SMILES): CC(=O)O[C@H]1C(=O)[C@]2(C)[C@@H](OC(=O)c3ccc(N=[N+]=[N-])cc3)C[C@H]3OC[C@@]3(OC(C)=O)[C@H]2[C@H](OC(=O)c2ccccc2)[C@]2(O)C[C@H](OC(=O)[C@H](O)[C@@H](NC(=O)c3ccccc3)c3ccccc3)C(C)=C1C2(C)C
- Cytotoxicity (B16): 30
- Activity [1]: 21

Structure (SMILES): CC(=O)O[C@H]1C(=O)[C@]2(C)[C@@H](OC(=O)c3cc(N=[N+]=[N-])cc([N+](=O)[O-])c3)C[C@H]3OC[C@@]3(OC(C)=O)[C@H]2[C@H](OC(=O)c2ccccc2)[C@]2(O)C[C@H](OC(=O)[C@H](O)[C@@H](NC(=O)c3ccccc3)c3ccccc3)C(C)=C1C2(C)C
- Activity [1]: > 24

Structure (SMILES): CC(=O)O[C@H]1C(=O)[C@]2(C)[C@@H](OC(=O)c3ccccc3)C[C@H]3OC[C@@]3(OC(C)=O)[C@H]2[C@H](OC(=O)c2ccccc2)[C@]2(O)C[C@H](OC(=O)[C@H](O)[C@@H](NC(=O)c3ccccc3)c3ccccc3)C(C)=C1C2(C)C [PACLITAXEL C7 BENZOIC ACID ESTER]
- Cytotoxicity (B16): 9.7
- Activity [1]: 4.1

Structure (SMILES): CC(=O)O[C@H]1C(=O)[C@]2(C)[C@@H](OC(=O)CCl)C[C@H]3OC[C@@]3(OC(C)=O)[C@H]2[C@H](OC(=O)c2ccccc2)[C@]2(O)C[C@H](OC(=O)[C@H](O)[C@@H](NC(=O)c3ccccc3)c3ccccc3)C(C)=C1C2(C)C
- Cytotoxicity (B16): 0.92
- Activity [1]: 1.6

Structure (SMILES): CC(=O)O[C@H]1C(=O)[C@]2(C)[C@@H](OC(=O)c3ccc(N)cc3)C[C@H]3OC[C@@]3(OC(C)=O)[C@H]2[C@H](OC(=O)c2ccccc2)[C@]2(O)C[C@H](OC(=O)[C@H](O)[C@@H](NC(=O)c3ccccc3)c3ccccc3)C(C)=C1C2(C)C
- Cytotoxicity (B16): 17
- Activity [1]: 1.7

Structure (SMILES): CC(=O)O[C@H]1C(=O)[C@]2(C)[C@@H](OC(=O)CI)C[C@H]3OC[C@@]3(OC(C)=O)[C@H]2[C@H](OC(=O)c2ccccc2)[C@]2(O)C[C@H](OC(=O)[C@H](O)[C@@H](NC(=O)c3ccccc3)c3ccccc3)C(C)=C1C2(C)C
- Cytotoxicity (B16): 3.7
- Activity [1]: 3.3

Structure (SMILES): CC(=O)O[C@H]1C(=O)[C@@]2(C)[C@H]([C@H](OC(=O)c3ccccc3)[C@]3(O)C[C@H](OC(=O)[C@H](O)[C@@H](NC(=O)c4ccccc4)c4ccccc4)C(C)=C1C3(C)C)[C@]1(OC(C)=O)CO[C@@H]1C[C@@H]2O [PACLITAXEL]
- Cytotoxicity (B16): 1
- Activity [1]: 1

Structure (SMILES): CC(=O)O[C@H]1C(=O)[C@]2(C)[C@@H](OC(=O)c3cccc(N=[N+]=[N-])c3)C[C@H]3OC[C@@]3(OC(C)=O)[C@H]2[C@H](OC(=O)c2ccccc2)[C@]2(O)C[C@H](OC(=O)[C@H](O)[C@@H](NC(=O)c3ccccc3)c3ccccc3)C(C)=C1C2(C)C
- Activity [1]: > 24

Structure (SMILES): CC(=O)O[C@H]1C(=O)[C@@]2(C)C([C@H](OC(=O)c3ccccc3)[C@]3(O)C[C@H](OC(=O)[C@H](O)[C@@H](NC(=O)c4ccccc4)c4ccccc4)C(C)=C1C3(C)C)[C@]1(OC(C)=O)CO[C@@H]1C[C@@H]2OC(=O)c1cccc(C(C)C)c1 (stereo not given in full)
- Activity [1]: > 32
